Measurements from PMC4183140 (Journal of medicinal chemistry, 2009).

Test system: 1A9 ovarian cancer cells
Experiment: Anti-proliferative activity in 1A9 ovarian cancer cells
Type: cell-based
Conditions: for Antiproliferative activity (in words): antiproliferative assays, highest concentration tested 50 μM

Structure (SMILES)	Antiproliferative activity (in words)	Fold more active than epi-tubulysin V in the antiproliferative assays (antiproliferative assays (1A9 and MCF-7), relative to epi-tubulysin V)
CC[C@H](C)[C@H](NC(=O)[C@@H](C)N(C)C)C(=O)N[C@H](CC(=O)c1nc(C(=O)N[C@H](CCC(=O)O)Cc2ccccc2)cs1)C(C)C [Compound 22]	sub-micromolar activity	
CC[C@H](C)[C@H](NC(=O)[C@H]1CCCCN1C)C(=O)N[C@H](C[C@@H](O)c1nc(C(=O)N[C@@H](Cc2ccccc2)C[C@H](C)C(=O)O)cs1)C(C)C [Compound 4, tubulysin V]		30–45 fold
CC[C@H](C)[C@H](NC(=O)[C@@H](C)N(C)C)C(=O)N[C@H](CC(=O)c1nc(C(=O)N[C@@H](Cc2ccccc2)C[C@H](C)C(=O)O)cs1)C(C)C [Compound 21]	not active	
